From patent publication US6914151B1, “Crystallization processes for the formation of stable crystals of aspartame derivative” (Ajinomoto Co., Inc., priority 1998, dated 2005)

Tests used:
[1] = Stability test at 70° C. of crystals (remaining ratio of N-(3,3-dimethylbutyl)-APM); assay type: physicochemical
Procedure: The resulting G-type crystals and A-type crystals of N-(3,3-dimethylbutyl)-APM were tested at 70° C., concerning their stability. […] The relationship between the storage time and the remaining ratio of N-(3,3-dimethylbutyl)-APM in this test will be shown below in Table 1.

[2] = on the weight basis, cited from earlier work

SMILES	Remaining ratio ([1]; time elapsed 0 hrs)	Remaining ratio ([1]; time elapsed 52 hrs)	Remaining ratio ([1]; time elapsed 160 hrs)	Remaining ratio ([1]; time elapsed 160 hrs, listed as A-type crystals)	Remaining ratio ([1]; time elapsed 160 hrs, listed as G-type crystals)	sweetening potency relative to aspartame ([2]; times that of aspartame)	sweetening potency relative to sucrose ([2]; times that of sucrose (table sugar))
COC(=O)[C@H](Cc1ccccc1)NC(=O)[C@H](CC(=O)O)NCCC(C)(C)C [A, N-[N-(3,3-dimethylbutyl)-L-α-aspartyl]-L-phenylalanine methyl ester]	95 wt. %	95 wt. %	94 wt. %	94 wt. %	–	–	–
COC(=O)[C@H](Cc1ccccc1)NC(=O)[C@H](CC(=O)O)NCCC(C)(C)C [G, N-[N-(3,3-dimethylbutyl)-L-α-aspartyl]-L-phenylalanine methyl ester, reference compound]	96 wt. %	87 wt. %	34 wt. %	–	34 wt. %	–	–
COC(=O)[C@H](Cc1ccccc1)NC(=O)[C@H](CC(=O)O)NCCC(C)(C)C [N-(3,3-dimethylbutyl)-ATM, N-[N-(3,3-dimethylbutyl)-L-α-aspartyl]-L-phenylalanine methyl ester]	–	–	–	–	–	at least 50 times	about 10,000 times
